We go through 20 compounds from US5538960A, “Hydrazono-5β, 14β-androstane derivatives active on the cardiovascular system, and pharmaceutical compositions containing same” (SIGMA-TAU Industrie Farmaceutiche Riunite S.p.A., priority 1992, dated 1996).

For experiment [1], the system named is spontaneous hypertensive rats (MHS). The experiment is described as follows: effect of 5 week-treatment on the development of hypertension in rats (SBP and HR, tail cuff method). The class given is in vivo, rat. The following applies: 20 mg/Kg/os daily in Methocel 0.5% w/v, 5 weeks, 7 rats; for SBP: controls 172 +/- 3.5; for HR: controls 380 +/- 9.0. The procedure:
Systolic blood pressure (SBP) and heart rate (HR) were measured, by the tail cuff method, in young prehypertensive male rats (MHS or SHR) strains before the development of hypertension (4 weeks of age) for recording the basal values of SBP. Groups of 7 rats were formed and subdivided in control and treated groups. The compound, suspended in Methocel 0.5 % (w/v), was orally given daily for at least 5 weeks to the treated groups. The control group received only Methocel.
SBP and HR were measured weekly 6 and 24 hrs after treatment. After 5 weeks of treatment, when hypertension was fully developed in the control group (9 weeks of age), washout was started for at least one week, to verify whether the treatment mantained blood pressure low or reestablished the basal values. […] (Takeda K. et al., Japan J. Pharmacol, 1979, 29,171; Takeda K. et al. Japan J. Pharmacol., 1982, 32, 283; Richer C. et al. Eur. J. Pharmacol, 1978, 47,393).

The target of experiment [2] is T1, Na^+,K+ -ATPase (Canis lupus familiaris, UniProt P50997).
T1 construct: Na^+,K+ -ATPase receptor purified according to Jorghensen; from tissue
Kind of experiment: inhibition of the activity of the purified Na^+,K+ -ATPase measured as % of hydrolysis of ^32 P-ATP. It is filed as biochemical. The source says: (§1) To test the affinity for the receptor site of the Na^+,K+ -ATPase and the agonist or antagonist activity on the enzyme, the following tests were used:
b) inhibition of the activity of the purified Na^+,K+ -ATPase measured as % of hydrolysis of ^32 P-ATP in presence and in absence of the tested compound (Mall F. et al., Biochem. Pharmacol, 1984, 33, 47)

Experiment [3] addresses T1, Na^+,K+ -ATPase. The experiment is described as follows: displacement of the specific ^3 H-ouabain binding from the Na^+,K+ -ATPase receptor.
Text: as §1
a) displacement of the specific ^3 H-ouabain binding from the Na^+,K+ -ATPase receptor purified according to Jorghensen (Jorghensen P., BBA, 1974, 356, 36) and Erdmann (Erdmann E. et al., Arzneim. Forsh., 1984, 34, 1314);

Experiment [4] deals with Na^+,K+ -ATPase. The following applies: Gelbart and Thomas 1978; Schonfeld and Repke 1988; Thomas et al. 1974; Boutagy et al. 1973; cited from earlier work.
For experiment [5] the following is noted: Gelbart and Thomas 1978; Schonfeld and Repke 1988; cited from earlier work.
Setting [6] is: purified Na^+,K+ -ATPase receptor, read-out: Binding ^3 H-Ouab. Displacement log IC50 (converted).
The mark [7] stands for this setting: purified Na^+,K+ -ATPase, hydrolysis of ^32 P-ATP, read-out: Inhibitory Activity log IC50 (converted).
Setting [8] is: purified Na^+,K+ -ATPase, hydrolysis of ^32 P-ATP.

By IC50 is commonly meant the concentration needed to halve the response being measured. Consider `CN(C)CCNC(=N)N/N=C/[C@H]1CC[C@]2(O)[C@@H]3CC[C@@H]4C[C@@H](O)CC[C@]4(C)[C@H]3CC[C@]12C` [Comp. I-ag, (E)-17β-(3-(2-Dimethylaminoethyl)guanidinoimino)methyl-5β-androstane-3β,14β-diol], for which, in experiment [1], the SBP is given as 154 +/- 4.8 mm Hg and the HR is 390 +/- 5.9 beats/min. This compound also had an IC50 at Na^+,K+ -ATPase [2] of 25.1 µM. For the same compound, the IC50 on Na^+,K+ -ATPase [3] (setting [6]) is 1 µM.
Take `C[C@]12CC[C@H](OCCCN)C[C@H]1CC[C@@H]1[C@@H]2CC[C@]2(C)[C@@H](/C=N/NC3=NCCN3)CC[C@]12O` [Comp. I-au, (E)-3β-(3-Aminopropoxy)-17β(2-imidazolin-2-yl)hydrazonomethyl-5β-androstane-14β-ol]: the IC50 is 3.98 µM on Na^+,K+ -ATPase [2] and 0.1 µM on Na^+,K+ -ATPase [3].
For `C[C@]12CC[C@H](O)C[C@H]1CC[C@@H]1[C@@H]2CC[C@]2(C)[C@@](O)(/C=N/NC3=NCCN3)CC[C@]12O` [Comp. I-bn, (E)-17β-(2-Imidazolin-2-yl)hydrazonomethyl-5β-androstane-3β,14β,17α-triol], in that order: 12.6 µM and 3.98 µM.
As to `C[C@]12CC[C@H](O)C[C@H]1CC[C@@H]1[C@@H]2CC[C@]2(C)[C@@H](/C=N/N=C(\N)Nc3ccccc3)CC[C@]12O` [Comp. I-ah, (E)-17β-(3-Phenylguanidino)iminomethyl-5β-androstane-3β,14β-diol], the IC50 against Na^+,K+ -ATPase [2] is 100 µM; on Na^+,K+ -ATPase [3] (setting [6]), 6.31 µM.
With `C[C@]12CC[C@H](OCCN3CCCC3)C[C@H]1CC[C@@H]1[C@@H]2CC[C@]2(C)[C@@H](/C=N/NC3=NCCN3)CC[C@]12O` [Comp. I-aw, (E)-3β-(2-(1-Pyrrolidinyl)ethoxy)-17β-(2-imidazolin-2-yl)hydrazonomethyl-5β-androstane-14β-ol], in experiment [1], the SBP is 151 +/- 5.2 mm Hg and the HR was 388 +/- 9.0 beats/min. Also, on Na^+,K+ -ATPase [2] (setting [7]), the IC50 was 0.398 µM. In addition, the IC50 at Na^+,K+ -ATPase [3] (setting [6]) was 0.1 µM.
Regarding `C[C@]12CC[C@H](O)C[C@H]1CC[C@@H]1[C@@H]2CC[C@]2(C)C(C=NNC(=N)N)CC[C@]12O` (stereo partly drawn) [17-Guanidinoiminomethyl-5β-androstane-3β,14β-diol], the “inhibition of Na^+,K+ -ATPase” value in the experiment on Na^+,K+ -ATPase [4] is “weak inhibitors of Na^+,K+ -ATPase”. In addition, the positive inotropic activity entry in experiment [5] is reported as “weak positive inotropic agents”.
With `CSC(=N)N/N=C/[C@H]1CC[C@]2(O)[C@@H]3CC[C@@H]4C[C@@H](O)CC[C@]4(C)[C@H]3CC[C@]12C` [Comp. I-ak, (E)-17β-(3-Methylisothiosemicarbazono)methyl-5β-androstane-3β,14-diol], the IC50 against Na^+,K+ -ATPase [2] was 31.6 µM; at Na^+,K+ -ATPase [3], 2 µM.
In the same order, the values of `C[C@]12CC[C@H](O)C[C@H]1CC[C@@H]1[C@@H]2CC[C@]2(C)[C@@H](/C=N/NC(=N)NC(=N)N)CC[C@]12O` [Comp. I-af, (E)-17β-(3-Amidino)guanidinoiminomethyl-5β-androstane-3β,14β-diol] are 7.94 µM and 0.2 µM.
As for `C[C@]12CC[C@H](OCCCN)C[C@H]1CC[C@@H]1[C@@H]2CC[C@]2(C)[C@@H](/C=N/NC(N)=O)CC[C@]12O` [Comp. I-aq, (E)-3β-(3-Aminopropoxy)-17β-semicarbazonomethyl-5β-androstane-14β-ol], the figures for the IC50 at Na^+,K+ -ATPase [2] (setting [7]) and at Na^+,K+ -ATPase [3] were 39.8 µM and 1.26 µM, respectively.
`C/C(=N\N=C(N)N)[C@H]1CC[C@]2(O)[C@@H]3CC[C@@H]4C[C@@H](O)CC[C@]4(C)[C@H]3CC[C@]12C` [Comp. I-bk, (E)-20-Guanidinoimino-5β-pregnane-3β,14β-diol]: the IC50 at Na^+,K+ -ATPase [2] is 5.01 µM; on Na^+,K+ -ATPase [3], 0.251 µM.
As to `C[C@]12CC[C@H](OCCCN)C[C@H]1CC[C@@H]1[C@@H]2CC[C@]2(C)[C@@H](/C=N/NC(=N)N)CC[C@]12O` [Comp. I-al, (E)-3β-(3-Aminopropoxy)-17β-guanidinoiminomethyl-5β-androstane-14β-ol], the SBP in experiment [1] is recorded as 153 +/- 6.3 mm Hg. Besides, in experiment [1], the HR is on record as 380 +/- 10.0 beats/min. In addition, the IC50 on Na^+,K+ -ATPase [2] (setting [7]) is 0.794 µM; at Na^+,K+ -ATPase [3], 0.0398 µM.
For the compound `C[C@]12CC[C@H](OCCN3CCCC3)C[C@H]1CC[C@@H]1[C@@H]2CC[C@]2(C)[C@@H](/C=N/NC(N)=O)CC[C@]12O` [Comp. I-as, (E)-3β-(2-(1-Pyrrolidinyl)ethoxy)-17β-semicarbazonomethyl-5β-androstane-14β-ol], the figures for the IC50 at Na^+,K+ -ATPase [2] (setting [7]) and at Na^+,K+ -ATPase [3] were 39.8 µM and 1.58 µM, respectively.
For `C[C@]12CCC(=NNC(=N)N)C[C@H]1CC[C@@H]1[C@@H]2CC[C@]2(C)[C@@H](/C=N/NC(=N)N)CC[C@]12O` [Comp. I-bi, 3-[(ZE)-Guanidinoimino]-17β-[(E)-guanidinoiminomethyl]-5β-androstane-14β-ol], the results for the IC50 against Na^+,K+ -ATPase [2] and at Na^+,K+ -ATPase [3] were 5.01 µM and 0.126 µM, respectively.
As for `C[C@]12CC[C@H](O)C[C@H]1CC[C@@H]1[C@@H]2CC[C@]2(C)[C@@H](/C=N/NC3=NCCN3)CC[C@]12O` [Comp. I-aa, (E)-17β-(2-Imidazolin-2-yl)hydrazonomethyl-5β-androstane-3β,14β-diol], in experiment [1], the SBP is on record as 149 +/- 3.7 mm Hg and the HR is on record as 370 +/- 11.2 beats/min. Further, on Na^+,K+ -ATPase [2] (setting [8]), the “Inhibitory Activity log IC50” value is given as 5.2. Besides, the IC50 on Na^+,K+ -ATPase [3] is 0.2 µM.
`C[C@]12CC[C@H](OCCN3CCCC3)C[C@H]1CC[C@@H]1[C@@H]2CC[C@]2(C)[C@@H](/C=N/NC(=N)N)CC[C@]12O` [Comp. I-an, (E)-3β-(2-(1-pyrrolidinyl)ethoxy)-17β-guanidinoiminomethyl-5β-androstane-14β-ol]: in experiment [1], the SBP is given as 150 +/- 5.1 mm Hg and the HR is on record as 384 +/- 7.9 beats/min. The IC50 on Na^+,K+ -ATPase [2] (setting [7]) is 0.501 µM. The IC50 at Na^+,K+ -ATPase [3] (setting [6]) is 0.0398 µM.
As to `C[C@]12CC[C@H](O)C[C@H]1CC[C@@H]1[C@@H]2CC[C@]2(C)[C@@H](/C=N/NC3=NCCCN3)CC[C@]12O` [Comp. I-ae, (E)-17β-(1,4,5,6-Tetrahydro-2-pyrimidinyl)hydrazonomethyl-5β-androstane-3β,14β-diol], the “Inhibitory Activity log IC50” value on Na^+,K+ -ATPase [2] (setting [8]) came out at 5.3. At Na^+,K+ -ATPase [3], the IC50 was 0.251 µM.
Regarding `C[C@]12CC[C@H](O)C[C@H]1CC[C@@H]1[C@@H]2CC[C@]2(C)[C@@](O)(/C=N/NC(=N)N)CC[C@]12O` [Comp. I-bl, (E)-17β-Guanidinoiminomethyl-5β-androstane-3β,14β,17α-triol], the IC50 on Na^+,K+ -ATPase [2] (setting [7]) is 39.8 µM; on Na^+,K+ -ATPase [3] (setting [6]), 1.58 µM.
For `C[C@]12CC[C@H](O)C[C@H]1CC[C@@H]1[C@@H]2CC[C@]2(C)/C(=N/NC3=NCCN3)CC[C@]12O` [Comp. I-bo, (E)-17-(2-Imidazolin-2-yl)hydrazono-5β-androstane-3β,14β-diol], in that order: 39.8 µM and 2 µM.
For `C[C@]12CC[C@H](O)C[C@H]1CC[C@@H]1[C@@H]2CC[C@]2(C)C(=NNC(=N)N)CC[C@]12O` [17-guanidinoimino-5β-androstane-3β,14β-diol], the “inhibition of Na^+,K+ -ATPase” value in the experiment with Na^+,K+ -ATPase [4] is listed as “weak inhibitors of Na^+,K+ -ATPase”. Besides, in experiment [5], the positive inotropic activity result was “weak positive inotropic agents”.
Consider `CN1CCN=C1N/N=C/[C@H]1CC[C@]2(O)[C@@H]3CC[C@@H]4C[C@@H](O)CC[C@]4(C)[C@H]3CC[C@]12C` [Comp. I-ac, (E)-17β-(1-Methyl-2-imidazolin-2-yl)hydrazono-methyl-5β-androstane-3β,14β-diol], for which the IC50 against Na^+,K+ -ATPase [2] is 12.6 µM; on Na^+,K+ -ATPase [3] it was 1 µM.
